The test system of one data set is Staphylococcus aureus. The data set can be described thus: Chequerboard analysis / MIC against Staphylococcus aureus (MRSA cells). It counts as cell-based. The method, then: Chequerboard analysis was used to determine whether compounds could be combined to decrease the MIC for Staphylococcus aureus, as compared to each individual compound. In the present experiments, combinations of zingerone plus gentamicin, zingerone plus vancomycin, and zingerone plus cefotaxime were tested. For this testing, 96 well plates were inoculated Staphylococcus aureus, and then incubated with the test compounds for 24 hours at 37° C. For zingerone, additions were made at […], 12.5, and 25 mg/ml. For gentamicin, additions were made at 0, 4, 8, 16, 32, 64, 128, and 256 μg/ml. For vancomycin, additions were made at 0, 4, 8, 16, 32, 64, 128, and 256 μg/ml. For cefotaxime, additions were made at 0, 8, 16, 32, 64, 128, 256, and 512 μg/ml. MRSA cells (methicillin-resistant Staphylococcus aureus) were introduced in Mueller Hinton media with 2% NaCl. 10^8 cells per ml were utilised. The FICI index was used to quantify the interaction of the compounds interact employing the following equation: FICI=(MICA^combi/MICA^alone)+ (MICB^combi/MICB^alone). A FICI of ≤0.5 was designated as synergy, and a FICI of >4.0 was defined as antagonism. A FICI of 0.5 to 1.0 was deemed as a significant improvement although not synergistic.

Another data set relates to Pseudomonas aeruginosa. The conditions noted are these: cited from earlier work.
The conditions of data set [1]: EFSA 2016; 14 (8): 4557; cited from earlier work.
The conditions of data set [2]: cited from earlier work.
A further data set has as its system liver inflammation. The conditions noted are these: peritonitis mouse model; cited from earlier work.
Setting [3] is: individual compound, 24 hours at 37° C., MRSA in Mueller Hinton media with 2% NaCl.

In brackets after ≈: the same amount, converted by molar mass. Several values for one entry are separate records, joined by “and”; a condition that tells them apart may be missing. Equal entries are not always repeated. Where two headings read alike, the source gives them in different places.

Consider `CO/N=C(\C(=O)N[C@@H]1C(=O)N2C(C(=O)O)=C(COC(C)=O)CS[C@H]12)c1csc(N)n1` [Cefotaxime, reference compound], for which the MIC with Staphylococcus aureus (Staphylococcus aureus, individual compound, 24 hours at 37° C., MRSA in Mueller Hinton media with 2% NaCl, read-out: MIC) was more than 512 µg/mL.
As for `CN[C@H](CC(C)C)C(=O)N[C@H]1C(=O)N[C@@H](CC(N)=O)C(=O)N[C@H]2C(=O)N[C@H]3C(=O)N[C@H](C(=O)N[C@H](C(=O)O)c4cc(O)cc(O)c4-c4cc3ccc4O)[C@H](O)c3ccc(c(Cl)c3)Oc3cc2cc(c3O[C@@H]2O[C@H](CO)[C@@H](O)[C@H](O)[C@H]2O[C@H]2C[C@](C)(N)[C@H](O)[C@H](C)O2)Oc2ccc(cc2Cl)[C@H]1O` [Vancomycin, reference compound], in the data set on Staphylococcus aureus (Staphylococcus aureus, MRSA, 24 h), the MIC was found to be 8 µg/mL.
The term Log P denotes a log measure of how a compound divides between an organic and an aqueous phase. Regarding `COc1cc(CCC(C)=O)ccc1O` [Zingerone], in the data set with Pseudomonas aeruginosa, the “effect on susceptibility of cells to antibiotics” value is given as “enhance the susceptibility”. For the same compound, the “No Observed Adverse Effects (NOAEL) dose” value in data set [1] was 128 mg/kg/day. Besides, the “Log P” value in data set [2] (FoodB compounds database) was 2.02 and 1.92. The water solubility in data set [2] (FoodB compounds database) was 570 µg/mL (≈ 2930 µM). The “solubility (in words)” value in data set [2] (reported) is on record as “sparingly soluble in water”. Besides, the MIC with Staphylococcus aureus (setting [3]) was found to be 25 mg/g; in the data set on Staphylococcus aureus (zingerone in combination with cefotaxime), 25 mg/g; in the data set with Staphylococcus aureus (zingerone in combination with gentamicin) it was 6.25 mg/g; in the data set with Staphylococcus aureus (zingerone in combination with vancomycin), 12.5 mg/g. Further, the “effect on liver inflammation” value in the data set with liver inflammation is on record as “anti-inflammatory effect”.
With Gentamicin [reference compound], the MIC with Staphylococcus aureus (gentamicin in combination with zingerone) was determined as 4 µg/mL; in the data set with Staphylococcus aureus (setting [3]), 16 µg/mL.

Values taken from patent US20240351967A1, “METHODS OF PREPARATION OF ZINGERONE, COMPOSITIONS COMPRISING ZINGERONE, AND USES THEREFOR” (Evithe Limited, priority 2021, published 2024).
